Where two headings read alike, the source gives them in different places.
Columns and labels:
p38g MAPK = biological target: T1, p38g MAPK (Homo sapiens, UniProt P53778); assay: Kinase profiling p38g MAPK; type: biochemical; details: for remaining activity at 100 µM: read-out: residual kinase activity, p38g MAPK
T1 sequence (P53778 1-367): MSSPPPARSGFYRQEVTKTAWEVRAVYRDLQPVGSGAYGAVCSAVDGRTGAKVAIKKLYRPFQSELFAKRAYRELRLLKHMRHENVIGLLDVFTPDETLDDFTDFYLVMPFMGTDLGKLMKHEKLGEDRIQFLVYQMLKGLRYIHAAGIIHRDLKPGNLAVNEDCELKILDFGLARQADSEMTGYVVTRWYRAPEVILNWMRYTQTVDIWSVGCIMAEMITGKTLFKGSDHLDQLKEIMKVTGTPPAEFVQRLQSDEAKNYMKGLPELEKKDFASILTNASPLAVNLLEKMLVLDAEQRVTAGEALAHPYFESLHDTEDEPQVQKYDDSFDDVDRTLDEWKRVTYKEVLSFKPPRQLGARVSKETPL
Excerpt: (§1) Any value less that 25 is considered to be highly significant inhibition.

PLK1 = PLK1 (Homo sapiens, UniProt P53350); assay: Kinase profiling PLK1; type: biochemical; details: for remaining activity at 100 µM: read-out: residual kinase activity, PLK1
PLK1, sequence (P53350 whole entry, species assumed): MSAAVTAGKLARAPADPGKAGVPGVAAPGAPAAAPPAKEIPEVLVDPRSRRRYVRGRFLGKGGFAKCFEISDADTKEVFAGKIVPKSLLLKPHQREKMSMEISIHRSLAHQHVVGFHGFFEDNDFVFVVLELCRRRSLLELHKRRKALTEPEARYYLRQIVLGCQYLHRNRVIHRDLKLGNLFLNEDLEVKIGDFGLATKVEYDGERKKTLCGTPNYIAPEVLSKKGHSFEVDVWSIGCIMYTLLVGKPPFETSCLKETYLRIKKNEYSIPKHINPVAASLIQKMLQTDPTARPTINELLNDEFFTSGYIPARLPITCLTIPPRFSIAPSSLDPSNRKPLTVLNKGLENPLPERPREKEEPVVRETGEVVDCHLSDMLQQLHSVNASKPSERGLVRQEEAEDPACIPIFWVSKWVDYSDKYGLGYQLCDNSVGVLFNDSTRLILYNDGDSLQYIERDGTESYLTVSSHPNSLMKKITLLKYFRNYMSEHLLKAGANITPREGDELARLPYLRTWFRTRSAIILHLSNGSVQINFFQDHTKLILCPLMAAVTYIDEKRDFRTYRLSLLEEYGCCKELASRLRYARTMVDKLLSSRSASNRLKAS
Excerpt: as §1

p38a MAPK = p38a MAPK (Homo sapiens, UniProt Q16539); assay: Kinase profiling p38a MAPK; type: biochemical; details: for remaining activity at 100 µM: read-out: residual kinase activity, p38a MAPK
p38a MAPK, sequence (Q16539 whole entry): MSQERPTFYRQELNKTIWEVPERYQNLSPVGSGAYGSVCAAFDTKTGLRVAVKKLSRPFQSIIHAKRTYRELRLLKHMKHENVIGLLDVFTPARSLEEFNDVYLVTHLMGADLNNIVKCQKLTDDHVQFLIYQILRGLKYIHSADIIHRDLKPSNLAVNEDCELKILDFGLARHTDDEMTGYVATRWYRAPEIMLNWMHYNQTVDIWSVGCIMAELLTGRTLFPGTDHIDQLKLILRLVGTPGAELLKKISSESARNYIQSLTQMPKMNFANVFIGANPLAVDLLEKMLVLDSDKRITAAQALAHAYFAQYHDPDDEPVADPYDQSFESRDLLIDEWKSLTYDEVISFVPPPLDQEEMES
Excerpt: as §1

SGK1 = biological target: T2, SGK1 (Homo sapiens, UniProt O00141); assay: Kinase profiling SGK1; type: biochemical; details: for remaining activity at 100 µM: read-out: residual kinase activity, SGK1
T2 sequence (O00141 1-431): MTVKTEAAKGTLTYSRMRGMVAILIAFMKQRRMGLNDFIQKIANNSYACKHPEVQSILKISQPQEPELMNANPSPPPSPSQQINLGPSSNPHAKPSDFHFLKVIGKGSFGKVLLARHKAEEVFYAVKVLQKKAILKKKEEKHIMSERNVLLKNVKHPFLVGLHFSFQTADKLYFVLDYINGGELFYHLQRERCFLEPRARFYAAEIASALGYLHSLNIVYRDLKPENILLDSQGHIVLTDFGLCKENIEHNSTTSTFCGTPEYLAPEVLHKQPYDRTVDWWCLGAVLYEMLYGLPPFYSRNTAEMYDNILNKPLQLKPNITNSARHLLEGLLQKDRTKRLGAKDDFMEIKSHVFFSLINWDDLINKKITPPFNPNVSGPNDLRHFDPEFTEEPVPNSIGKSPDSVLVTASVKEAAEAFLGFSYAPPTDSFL
Excerpt: as §1

ERK1 = ERK1 (Homo sapiens, UniProt P27361); assay: Kinase profiling ERK1; type: biochemical; details: for remaining activity at 100 µM: read-out: residual kinase activity, ERK1
ERK1, sequence (P27361 whole entry, species assumed): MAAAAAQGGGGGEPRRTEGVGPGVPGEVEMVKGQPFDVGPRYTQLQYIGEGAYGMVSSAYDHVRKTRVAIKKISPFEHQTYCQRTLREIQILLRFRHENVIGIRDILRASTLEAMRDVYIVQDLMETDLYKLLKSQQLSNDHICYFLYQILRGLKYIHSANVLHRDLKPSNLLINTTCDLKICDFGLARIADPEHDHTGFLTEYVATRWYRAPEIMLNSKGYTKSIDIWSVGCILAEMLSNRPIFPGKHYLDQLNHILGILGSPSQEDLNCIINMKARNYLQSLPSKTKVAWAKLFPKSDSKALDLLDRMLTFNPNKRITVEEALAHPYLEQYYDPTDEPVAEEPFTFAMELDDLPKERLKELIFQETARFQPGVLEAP
Excerpt: as §1

PKCγ = PKCγ (Homo sapiens, UniProt P05129); assay: Kinase profiling PKCγ; type: biochemical; details: for remaining activity at 100 µM: read-out: residual kinase activity, PKCγ
Excerpt: as §1

VEG-FR = assay: Kinase profiling VEG-FR; type: biochemical
Excerpt: as §1

BTK = BTK (Homo sapiens, UniProt Q06187); assay: Kinase profiling BTK; type: biochemical; details: for remaining activity at 100 µM: read-out: residual kinase activity, BTK
BTK, sequence (Q06187 whole entry, species assumed): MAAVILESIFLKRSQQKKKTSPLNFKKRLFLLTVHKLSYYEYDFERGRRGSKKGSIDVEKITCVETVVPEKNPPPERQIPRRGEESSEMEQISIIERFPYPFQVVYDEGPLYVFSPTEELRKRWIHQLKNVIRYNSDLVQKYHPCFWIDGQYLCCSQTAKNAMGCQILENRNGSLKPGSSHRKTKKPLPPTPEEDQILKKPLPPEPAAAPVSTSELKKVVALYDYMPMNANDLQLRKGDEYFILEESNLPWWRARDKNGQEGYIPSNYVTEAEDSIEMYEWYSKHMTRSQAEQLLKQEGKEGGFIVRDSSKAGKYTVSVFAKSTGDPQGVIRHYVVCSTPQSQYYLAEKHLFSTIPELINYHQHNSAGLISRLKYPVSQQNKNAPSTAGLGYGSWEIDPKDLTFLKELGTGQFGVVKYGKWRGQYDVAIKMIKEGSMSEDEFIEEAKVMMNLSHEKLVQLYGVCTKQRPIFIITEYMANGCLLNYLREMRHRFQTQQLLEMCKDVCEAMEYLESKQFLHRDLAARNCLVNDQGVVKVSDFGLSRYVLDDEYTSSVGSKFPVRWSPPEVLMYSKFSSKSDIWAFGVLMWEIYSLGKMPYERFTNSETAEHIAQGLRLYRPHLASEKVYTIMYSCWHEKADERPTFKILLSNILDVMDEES
Excerpt: as §1

LKB1 = biological target: T3, LKB1 (Homo sapiens, UniProt Q15831); assay: Kinase profiling LKB1; type: biochemical; details: for remaining activity at 100 µM: read-out: residual kinase activity, LKB1
T3 sequence (Q15831 1-433): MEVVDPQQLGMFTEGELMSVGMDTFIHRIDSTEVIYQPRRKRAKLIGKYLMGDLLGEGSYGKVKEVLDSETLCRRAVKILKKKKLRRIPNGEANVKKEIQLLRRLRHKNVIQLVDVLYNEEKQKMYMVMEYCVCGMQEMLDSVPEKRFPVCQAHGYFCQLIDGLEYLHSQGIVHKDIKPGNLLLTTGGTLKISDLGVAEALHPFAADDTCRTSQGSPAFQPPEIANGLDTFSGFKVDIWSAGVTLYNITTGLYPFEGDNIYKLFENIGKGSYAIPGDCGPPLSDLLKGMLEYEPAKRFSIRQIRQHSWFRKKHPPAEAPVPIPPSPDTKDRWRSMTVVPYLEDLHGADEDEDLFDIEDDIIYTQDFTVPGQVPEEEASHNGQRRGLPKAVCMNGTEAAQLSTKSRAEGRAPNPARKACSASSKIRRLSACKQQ
T3 sequence (Q7RTN6 1-431 partner): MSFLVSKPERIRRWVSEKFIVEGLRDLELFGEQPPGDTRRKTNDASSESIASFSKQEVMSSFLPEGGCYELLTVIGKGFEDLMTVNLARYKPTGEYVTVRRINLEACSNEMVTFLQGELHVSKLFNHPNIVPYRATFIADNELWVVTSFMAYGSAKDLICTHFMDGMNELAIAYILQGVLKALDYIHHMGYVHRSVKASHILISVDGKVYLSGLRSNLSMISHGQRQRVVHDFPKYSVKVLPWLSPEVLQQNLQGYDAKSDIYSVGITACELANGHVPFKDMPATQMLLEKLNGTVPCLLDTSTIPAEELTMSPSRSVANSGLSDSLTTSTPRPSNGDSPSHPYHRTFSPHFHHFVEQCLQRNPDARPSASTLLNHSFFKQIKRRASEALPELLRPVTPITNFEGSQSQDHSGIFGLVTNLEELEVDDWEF
T3 sequence (Q9Y376 1-341 partner): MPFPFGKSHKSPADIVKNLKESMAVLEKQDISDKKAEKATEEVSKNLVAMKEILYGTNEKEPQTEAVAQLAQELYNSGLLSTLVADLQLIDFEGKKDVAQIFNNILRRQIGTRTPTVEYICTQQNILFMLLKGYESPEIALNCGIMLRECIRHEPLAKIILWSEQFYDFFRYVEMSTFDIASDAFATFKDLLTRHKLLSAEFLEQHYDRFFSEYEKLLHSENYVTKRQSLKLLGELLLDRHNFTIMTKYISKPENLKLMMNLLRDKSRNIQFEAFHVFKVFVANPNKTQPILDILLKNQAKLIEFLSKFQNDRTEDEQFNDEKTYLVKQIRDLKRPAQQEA
Excerpt: as §1

CAMKKb = CAMKKb (Homo sapiens, UniProt Q96RR4); assay: Kinase profiling CAMKKb; type: biochemical; details: for remaining activity at 100 µM: read-out: residual kinase activity, CAMKKb
CAMKKb, sequence (Q96RR4 whole entry, species assumed): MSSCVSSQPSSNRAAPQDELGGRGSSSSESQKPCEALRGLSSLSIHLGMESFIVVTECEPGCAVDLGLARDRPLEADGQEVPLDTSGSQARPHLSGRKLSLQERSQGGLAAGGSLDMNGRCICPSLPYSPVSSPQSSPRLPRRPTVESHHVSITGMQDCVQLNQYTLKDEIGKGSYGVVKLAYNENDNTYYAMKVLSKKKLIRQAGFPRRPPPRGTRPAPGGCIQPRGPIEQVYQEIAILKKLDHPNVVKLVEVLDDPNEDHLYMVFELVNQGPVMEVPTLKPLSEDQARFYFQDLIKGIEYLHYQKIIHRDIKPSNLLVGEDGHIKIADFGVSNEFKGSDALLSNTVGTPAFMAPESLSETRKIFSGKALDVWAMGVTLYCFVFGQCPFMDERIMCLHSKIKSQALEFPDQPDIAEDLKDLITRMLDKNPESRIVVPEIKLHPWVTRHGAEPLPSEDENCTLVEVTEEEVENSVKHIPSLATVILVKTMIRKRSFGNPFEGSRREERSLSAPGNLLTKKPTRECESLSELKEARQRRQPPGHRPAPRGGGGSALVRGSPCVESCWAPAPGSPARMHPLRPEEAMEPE
Excerpt: as §1

STK33 = STK33 (Homo sapiens, UniProt Q9BYT3); assay: Kinase profiling STK33; type: biochemical; details: for remaining activity at 100 µM: read-out: residual kinase activity, STK33
STK33, sequence (Q9BYT3 whole entry, species assumed): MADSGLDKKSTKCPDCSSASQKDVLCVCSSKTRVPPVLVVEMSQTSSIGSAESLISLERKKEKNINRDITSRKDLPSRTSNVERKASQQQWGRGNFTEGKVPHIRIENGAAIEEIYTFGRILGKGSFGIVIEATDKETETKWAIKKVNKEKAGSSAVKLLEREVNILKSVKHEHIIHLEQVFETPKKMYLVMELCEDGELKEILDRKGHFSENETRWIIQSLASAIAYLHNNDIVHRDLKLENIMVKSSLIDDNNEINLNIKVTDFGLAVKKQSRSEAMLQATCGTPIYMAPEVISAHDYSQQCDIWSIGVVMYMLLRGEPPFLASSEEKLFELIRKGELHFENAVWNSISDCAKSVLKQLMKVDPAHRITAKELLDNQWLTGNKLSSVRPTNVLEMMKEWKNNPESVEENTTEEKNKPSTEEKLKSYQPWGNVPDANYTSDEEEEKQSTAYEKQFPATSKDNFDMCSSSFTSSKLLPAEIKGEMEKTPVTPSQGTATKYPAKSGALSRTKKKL
Excerpt: as §1

AMPK (hum) = assay: Kinase profiling AMPK (hum); type: biochemical, human
Excerpt: as §1

[1] = 100 micromolar inhibitor concentration, 100 is no change
[2] = 100 micromolar inhibitor, 100 = no change

SMILES	residual kinase activity, VEG-FR (VEG-FR; [1])	residual kinase activity, AMPK (hum) (AMPK (hum); [1])	residual kinase activity, p38g MAPK (p38g MAPK; [1])	residual kinase activity, PLK1 (PLK1; [1])	residual kinase activity, p38a MAPK (p38a MAPK; [1])	residual kinase activity, SGK1 (SGK1; [1])	residual kinase activity, ERK1 (ERK1; [1])	residual kinase activity, PKCγ (PKCγ; [1])	residual kinase activity, BTK (BTK; [1])	residual kinase activity, LKB1 (LKB1; [1])	residual kinase activity, CAMKKb (CAMKKb; [1])	residual kinase activity, STK33 (STK33; [1])	other results
CC(=O)Nc1nc2cc(O)ccc2s1 [Compound 01-66, N-(5-hydroxybenzo[d]thiazol-2-yl)acetamide]	24	–	–	–	–	–	–	–	–	–	–	–	remaining activity at 100 µM (p38g MAPK): 46%; remaining activity at 100 µM (PLK1): 103%; remaining activity at 100 µM (p38a MAPK): 84%; remaining activity at 100 µM (SGK1): 77%; remaining activity at 100 µM (ERK1): 61%; remaining activity at 100 µM (PKCγ): 99%; remaining activity at 100 µM (BTK): 67%; remaining activity at 100 µM (LKB1): 38%; remaining activity at 100 µM (CAMKKb): 44%; remaining activity at 100 µM (STK33): 52%
CC(=O)Nc1nc2ccc(O)cc2s1 [Compound 01-71]	9	–	–	–	–	–	–	–	–	–	–	–	remaining activity at 100 µM (p38g MAPK; [1]): 84%; remaining activity at 100 µM (PLK1; [1]): 97%; remaining activity at 100 µM (p38a MAPK; [1]): 86%; remaining activity at 100 µM (SGK1; [1]): 33%; remaining activity at 100 µM (ERK1; [1]): 65%; remaining activity at 100 µM (PKCγ; [1]): 76%; remaining activity at 100 µM (BTK; [1]): 69%; remaining activity at 100 µM (LKB1; [1]): 17%; remaining activity at 100 µM (CAMKKb; [1]): 57%; remaining activity at 100 µM (STK33; [1]): 41%
O=C(Nc1nc2cc(O)ccc2s1)c1cccnc1 [Compound 03-33]	50	87	85	80	105	86	93	103	110	83	69	70	–
O=C(Nc1nc2cc(O)ccc2s1)c1ccccn1 [Compound 03-13]	24	71	94	96	96	74	97	141	90	45	69	71	–
CC(=O)Nc1nc2cc(C)ccc2s1 [Compound 03-76]	50	69	92	90	92	65	91	106	92	96	71	80	–
O=C(Nc1nc2ccc(O)cc2s1)c1ccncc1 [Compound 08-42]	20	65	87	74	99	60	84	93	59	65	68	67	–
O=C(Nc1nc2ccc(O)cc2s1)c1ccccn1 [Compound 03-12]	17	90	89	65	107	88	74	143	71	64	41	65	–
CC(=O)Nc1cccc(NC(=O)c2nc3ccc(O)cc3s2)c1 [Compound 03-07, N-(3-acetamidophenyl)-6-hydroxybenzo[d]thiazole-2-carboxamide]	–	–	–	–	–	–	–	–	–	–	–	–	residual kinase activity, AMPK (hum) (AMPK (hum); [2]): 34; remaining activity at 100 µM (p38g MAPK; [2]): 93%; remaining activity at 100 µM (PLK1; [2]): 93%; remaining activity at 100 µM (p38a MAPK; [2]): 93%; remaining activity at 100 µM (SGK1; [2]): 64%; remaining activity at 100 µM (ERK1; [2]): 102%; remaining activity at 100 µM (PKCγ; [2]): 98%; residual kinase activity, VEG-FR (VEG-FR; [2]): 28; remaining activity at 100 µM (BTK; [2]): 32%; remaining activity at 100 µM (LKB1; [2]): 83%; remaining activity at 100 µM (CAMKKb; [2]): 30%; remaining activity at 100 µM (STK33; [2]): 63%
